For 25 compounds, IC50 and Ki results are on record in ChEMBL document CHEMBL1131986, “Structure-activity relationships of biphenyl tetrazoles as metallo-beta-lactamase inhibitors” (Bioorg Med Chem Lett, 1999).

pIC50, pKi: −log10 of the molar value.

One test addresses Beta-lactamase (Pseudomonas aeruginosa, UniProt Q79MP6). Kind of test: Inhibition of metallo-beta-lactamase (MBL) from Pseudomonas aeruginosa mediated by the plasmid-borne IMP-1 enzyme.
Test [1] deals with Metallo-beta-lactamase type 2 (Bacteroides fragilis, UniProt P25910). Kind of test: Inhibition of metallo-beta-lactamase (MBL) from Bacteroides fragilis.
A further test has as its target T1, Dipeptidase 1 (Sus scrofa, UniProt P22412).
T1 sequence (P22412 whole entry): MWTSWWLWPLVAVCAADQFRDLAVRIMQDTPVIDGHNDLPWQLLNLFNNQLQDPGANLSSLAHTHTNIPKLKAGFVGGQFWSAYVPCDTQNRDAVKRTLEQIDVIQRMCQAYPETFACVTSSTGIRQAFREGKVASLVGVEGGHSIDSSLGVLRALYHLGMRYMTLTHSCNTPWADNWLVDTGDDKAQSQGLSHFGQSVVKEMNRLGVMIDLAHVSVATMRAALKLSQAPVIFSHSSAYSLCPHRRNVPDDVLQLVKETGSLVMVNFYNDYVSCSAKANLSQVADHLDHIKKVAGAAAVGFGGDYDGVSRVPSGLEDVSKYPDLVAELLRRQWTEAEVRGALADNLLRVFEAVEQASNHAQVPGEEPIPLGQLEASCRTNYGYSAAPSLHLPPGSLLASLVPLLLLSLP
In words: In vitro apparent inhibition constant of porcine renal Dehydropeptidase-1. As to conditions: read-out: Ki app.

Metallo-beta-lactamase type 2, sequence (P25910 whole entry): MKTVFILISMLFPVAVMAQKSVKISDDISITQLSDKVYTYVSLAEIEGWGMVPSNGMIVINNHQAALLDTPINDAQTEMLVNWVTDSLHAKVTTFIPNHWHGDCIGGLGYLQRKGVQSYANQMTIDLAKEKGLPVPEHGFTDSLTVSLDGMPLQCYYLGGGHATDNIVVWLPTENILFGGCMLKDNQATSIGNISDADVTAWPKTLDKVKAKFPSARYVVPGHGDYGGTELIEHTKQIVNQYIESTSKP
Beta-lactamase, sequence (Q79MP6 whole entry): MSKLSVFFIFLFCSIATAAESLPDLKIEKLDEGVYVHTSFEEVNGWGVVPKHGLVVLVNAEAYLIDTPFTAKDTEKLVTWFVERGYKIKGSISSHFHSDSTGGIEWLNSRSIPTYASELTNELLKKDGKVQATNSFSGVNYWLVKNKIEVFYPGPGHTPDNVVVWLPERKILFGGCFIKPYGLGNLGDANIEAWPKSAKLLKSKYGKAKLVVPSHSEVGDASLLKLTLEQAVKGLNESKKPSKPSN

A word on the pIC50: it is the IC50 on a negative log10 scale, so that one unit is a factor of ten. Take `CCCCc1nn(-c2ccccc2C(F)(F)F)c(C(=O)OCC)c1Cc1ccc(-c2ccccc2-c2nnn[nH]2)cc1`: the pIC50 was less than 3.70 against Beta-lactamase and 4.66 in test [1].
For orientation: pKi means the negative decadic logarithm of the Ki, by convention in mol/L. Regarding `CCCCc1nn(-c2c(Cl)cc(Cl)cc2Cl)c(C(=O)O)c1Cc1ccc(-c2ccccc2-c2nnn[nH]2)cc1`, the pKi at Dipeptidase 1 is 3.10. Also, the figures for the negative-log IC50 (pIC50) (against Beta-lactamase; in test [1]) were less than 3.70 and 4.48, respectively.
On to `CCCCc1nn(-c2ccccc2-c2ccccc2)c(C(=O)OCC)c1Cc1ccc(-c2ccccc2-c2nn[nH]n2)cc1`, for which the pIC50 on Beta-lactamase is 3.82; in test [1], less than 3.70.
Turning to `CCCCc1nn(-c2ccccc2)c(C(=O)O)c1Cc1ccc(-c2ccccc2-c2nn[nH]n2)cc1`, the pKi on Dipeptidase 1 was 3.23. For the same compound, the pIC50 on Beta-lactamase is less than 3.70; in test [1], 3.70.
Take `CCCCc1nn(-c2ccc(Cl)cc2)c(C(=O)OCC)c1Cc1ccc(-c2ccccc2-c2nn[nH]n2)cc1`: the pKi at Dipeptidase 1 is 3.42. In addition, the pIC50 on Beta-lactamase was 4.15; in test [1], 3.54.
`CCCCc1nn(-c2ccccc2C)c(C(=O)OCC)c1Cc1ccc(-c2ccccc2-c2nn[nH]n2)cc1`: the pIC50 at Beta-lactamase is less than 3.70; in test [1], 4.15.
As to `CCCCc1nn(-c2cc(Cl)ccc2Cl)c(C(=O)OCC)c1Cc1ccc(-c2ccccc2-c2nn[nH]n2)cc1`, the pKi on Dipeptidase 1 was 4.10. Also, the pIC50 against Beta-lactamase is 4.22; in test [1], 4.00.
`CCCCc1nn(-c2ccccc2Cl)c(C(=O)OCC)c1Cc1ccc(-c2ccccc2-c2nnn[nH]2)cc1`: the negative logarithm of the Ki (pKi) on Dipeptidase 1 is 3.60. In addition, the pIC50 was 3.70 on Beta-lactamase and 3.77 in test [1].
In the case of `CCCCc1nn(-c2ccccc2)c(C(=O)OCC)c1Cc1ccc(-c2ccccc2-c2nnn[nH]2)cc1`, the negative logarithm of the Ki (pKi) on Dipeptidase 1 is 3.60. The pIC50 at Beta-lactamase was less than 3.70; in test [1] it was 4.00.
On the same counts, the results for `CCCCc1nn(-c2ccc(Cl)cc2Cl)c(C(=O)O)c1Cc1ccc(-c2ccccc2-c2nn[nH]n2)cc1` are 3.40, less than 3.70 and 4.10.
Consider `CCCCc1nn(-c2cccc(Cl)c2Cl)c(C(=O)OCC)c1Cc1ccc(-c2ccccc2-c2nnn[nH]2)cc1`, for which the pKi on Dipeptidase 1 is 3.77. The pIC50 was 3.76 on Beta-lactamase and 4.00 in test [1].
On the same counts, the results for `CCCCc1nn(-c2c(Cl)cc(Cl)cc2Cl)c(C(=O)OCC)c1Cc1ccc(-c2ccccc2-c2nn[nH]n2)cc1` are 3.35, less than 3.70 and 4.10.
`CCCCc1nn(-c2cccc(Cl)c2)c(C(=O)OCC)c1Cc1ccc(-c2ccccc2-c2nn[nH]n2)cc1`: the pKi at Dipeptidase 1 is 3.35. Further, the pIC50 was 4.12 on Beta-lactamase and 3.77 in test [1].
With `CCCCc1nn(-c2ccc(Cl)cc2)c(C(=O)O)c1Cc1ccc(-c2ccccc2-c2nn[nH]n2)cc1`, the pKi at Dipeptidase 1 was 3.37. For the same compound, the pIC50 is less than 3.70 against Beta-lactamase and 3.64 in test [1].
On the same counts, the results for `CCCCc1nn(-c2cccc(Cl)c2)c(C(=O)O)c1Cc1ccc(-c2ccccc2-c2nn[nH]n2)cc1` are 3.37, less than 3.70 and 3.72.
For `CCCCc1nn(-c2ccccc2[N+](=O)[O-])c(C(=O)OCC)c1Cc1ccc(-c2ccccc2-c2nnn[nH]2)cc1`, the pIC50 against Beta-lactamase is less than 3.70; in test [1] it was 4.74.
For `CCCCc1nn(-c2ccccc2-c2ccccc2)c(C(=O)O)c1Cc1ccc(-c2ccccc2-c2nnn[nH]2)cc1`, at Dipeptidase 1, the pKi was 3.38. The pIC50 against Beta-lactamase is 4.19; in test [1], 3.74.
Regarding `CCCCc1nn(-c2ccccc2Cl)c(C(=O)O)c1Cc1ccc(-c2ccccc2-c2nn[nH]n2)cc1`, the pKi on Dipeptidase 1 is 3.46. In addition, the negative-log IC50 (pIC50) at Beta-lactamase is less than 3.70; in test [1], 4.52.
For `CCCCc1nn(-c2cccc(Cl)c2Cl)c(C(=O)O)c1Cc1ccc(-c2ccccc2-c2nnn[nH]2)cc1`, the pKi on Dipeptidase 1 is 3.51. For the same compound, the pIC50 was less than 3.70 against Beta-lactamase and 4.43 in test [1].
For `CCCCc1nn(-c2ccccc2[N+](=O)[O-])c(C(=O)O)c1Cc1ccc(-c2ccccc2-c2nnn[nH]2)cc1`, at Dipeptidase 1, the pKi is 3.19. In addition, the pIC50 at Beta-lactamase is less than 3.70; in test [1] it was 3.92.
On to `CCCCc1nn(-c2ccc(Cl)cc2Cl)c(C(=O)OCC)c1Cc1ccc(-c2ccccc2-c2nnn[nH]2)cc1`, for which, at Dipeptidase 1, the pKi is 3.32. For the same compound, the negative-log IC50 (pIC50) was 4.18 at Beta-lactamase and 4.00 in test [1].
`CCCCc1nn(-c2c(Cl)cccc2Cl)c(C(=O)O)c1Cc1ccc(-c2ccccc2-c2nnn[nH]2)cc1`: the pKi at Dipeptidase 1 is 3.30. Further, the pIC50 on Beta-lactamase was less than 3.70; in test [1], 4.00.
In the case of `CCCCc1nn(-c2ccccc2C)c(C(=O)O)c1Cc1ccc(-c2ccccc2-c2nn[nH]n2)cc1`, the pKi on Dipeptidase 1 is 3.33. Also, the pIC50 is less than 3.70 against Beta-lactamase and 4.10 in test [1].
Consider `CCCCc1nn(-c2ccccc2C(F)(F)F)c(C(=O)O)c1Cc1ccc(-c2ccccc2-c2nnn[nH]2)cc1`, for which, at Dipeptidase 1, the pKi is 3.42. The pIC50 was less than 3.70 against Beta-lactamase and 4.40 in test [1].
Consider `CCCCc1nn(-c2cc(Cl)ccc2Cl)c(C(=O)O)c1Cc1ccc(-c2ccccc2-c2nnn[nH]2)cc1`, for which the negative-log Ki (pKi) on Dipeptidase 1 was 3.42. Further, the pIC50 is less than 3.70 at Beta-lactamase and 4.30 in test [1].
